Patent publication US10591487B2, “Small molecule detection and localization method based on MALDI imaging mass spectrometry” (INDUSTRY-ACADEMIC COOPERATION FOUNDATION, YONSEI UNIVERSITY, priority 2015, dated 2020)

Legend:
[1] = test system: CD31; experiment: Expression level of CD31 by immunohistochemical analysis of cancer cell; type: in vivo, mice; details: cancer tissue after dosing voacangine or sunitinib; FIGS. 14 and 15
Experimental: Immunohistochemical analysis was performed to find an effect of voacangine against pathological angiogenesis of a cancer cell.
CD31 or Platelet Endothelial Cell Adhesion Molecule-1 (PECAM-1) are known as being expressed on the surface of a hematoblast such as platelet and naive T cell, natural killer cell, granulocyte, monocyte and cell-to-cell junction of endothelial as transmembrane glycoprotein of 130 kDa type belonging to immunoglobulin super-family.

[2] = test system: capsaicin-induced contraction; details: isolated mouse rectum; J. Nat. Med. 65 (2011) 157-165; cited from earlier work
[3] = test system: HIF-1α; experiment: Expression level of HIF-1α; details: earlier finding of the inventors
[4] = test system: Human Umbilical Vascular Endothelial Cell (HUVEC); experiment: In vitro and in vivo angiogenesis inhibition (cell-based HUVEC screening); details: nontoxic dose, earlier finding of the inventors
Text: The inventors screened 300 crude extracts which are taken from a natural plant that is effective in proliferating Human Umbilical Vascular Endothelial Cell (HUVEC) by using a cell-based screening technique.

[5] = test system: VEGF; experiment: Expression level of VEGF, target gene of HIF-1α; details: earlier finding of the inventors
[6] = Voacangine distribution in tumors, livers and kidneys by MALDI imaging mass spectrometry; type: in vivo, mice; details: four hours after treating voacangine, FIG. 5
Text: After surgically removing tumors, livers, and kidneys from mouse models after four hours after treating voacangine in Embodiment 3, a specimen was manufactured to perform MALDI mass spectrometry and immunofluorescence with H&E straining and the result was shown in FIG. 5.

[7] = test system: U87MG; experiment: Variation of cancer size in U87MG cancer-diseased animal model; details: U87MG xenograft mice; voacangine 10 mg/kg i.p. every day for 12 days; compared with vehicle and sunitinib 40 mg/kg p.o.; FIG. 4
Experimental: A cell strain U87MG, which is a kind of human glioglastoma multiforme purchased from American Type Culture Collection (ATCC), was cultivated in a medium to which Phosphate-Buffered Saline (PBS): Matrigel (1:1) is added.
The cultivated cell strain U87MG of 5×10^6 was merged with PBS:Matrigel (1:1) of 100 μl and the mixture was injected into athymic nude mice for two weeks to induce growth of a cancer cell.

CCN(CC)CCNC(=O)c1c(C)[nH]c(/C=C2\C(=O)Nc3ccc(F)cc32)c1C [sunitinib, Sunitinib malate, reference compound]
CD31 expression [1]: greatly reduced in expression

CC[C@H]1C[C@@H]2C[N@]3CCc4c([nH]c5ccc(OC)cc45)[C@](C(=O)OC)(C2)C13 [voacangine]
capsaicin-induced contraction [2]: dose-dependently inhibiting
expression level of HIF-1α [3]: dose-dependently inhibited
angiogenesis inhibition [4]: inhibiting in vitro and in vivo angiogenesis by a nontoxic dose
expression level of VEGF [5]: dose-dependently inhibited
localization of voacangine in livers, kidneys and cancer cells [6]: more concentrated in the cancer cells than the livers and kidneys
cancer size after dosage [7]: greatly reduced
CD31 expression [1]: greatly reduced in expression
